US6376508B1, “Treatments for spinal muscular atrophy” (priority 2000, dated 2002)
Entries after “also recorded” stand apart in the source; their conditions may differ.

Columns and labels:
[1] = test system: SMA-like mice (progeny of hSMN2 Smn+/- intercross); test: In utero treatment of SMA-like mice (pregnant mice from hSMN2 Smn+/- intercross); type: in vivo, mouse
Protocol: To evaluate the therapeutic effect of sodium butyrate for severely affected SMA mice, the test compound was administered to pregnant mice from an hSMN2 Smn^+/− intercross. The number mice born with SMA-like phenotypes were counted and classified according to type. In one case, 4-8 μg/day sodium butyrate was administered to pregnant mice from a hSMN2 Smn^+/− intercross ad libitum in their drinking water beginning from 15 day post-coitum until parturition (Table 1).

exon 7 of the SMN2 gene = test: RT-PCR analysis of SMN exon 7 expression in EBV transformed lymphoid cell lines of SMA patients; type: cell-based, human
[2] = test system: SMA-like mice (hSMN2 Smn-/-); test: Treatment of types 2 and 3 SMA-like mice via drinking water; type: in vivo, mouse
Text: To generate hSMN2 Smn^−/− mice, hSMN2 Smn^+/− mice were crossed to Smn^+/− mice. Progeny lacking the murine SMN locus were identified by genotyping. The presence of the hSMN2 transgene was also confirmed.
These mice frequently developed chronic necrosis of the tail tip, muscular atrophy, subcutaneous edema in hindlimbs, and paralysis of hindlimbs. Type 3 mice survived and bred normally. The mild symptoms of these mice include short but enlarged tails.
The effect of sodium butyrate on the symptoms of SMA-like mice were investigated. Sodium butyrate was administered to ten SMA-like mice with type 2 symptoms and ten SMA-like mice with type 3 symptoms. These mice were identified at birth by genotype and phenotype. Thereafter, their drinking water was supplemented with a 0.8 μg/ml or an 8 μg/ml solution of sodium butyrate. The drinking water was available ad libitum. The amount of sodium butyrate taken by SMA-like mice was estimated to be approximate 4-80 μg/day. The survival time of sodium butyrate-treated type 2 SMA-like mice was longer, about 4 to 5 days longer on average, than untreated mice.
The effect of sodium butyrate administration on the tail phenotype of SMA-like mice was also monitored. The tails of untreated types 2 and 3 SMA-like mice have decreased diameter of muscle fibers, atrophy of muscle bundles, group atrophy and subcutaneous edema (Hsieh-Li et al. (2000) supra). […] The tail of a treated mouse was about 5 cm long on average, whereas the tail of an untreated mouse was about 1 cm long. Remarkably, the average length of the tail of treated mice, 5 cm, is close to the average length for wild-type mice, 6 cm.

[3] = test system: exon 7-containing SMN protein; test: Western-blot analysis (H2 and H7 antibodies) of SMN protein in SMA patient lymphoid cell lines; type: cell-based, human; details: cytosolic and nuclear fractions, 4 hours stimulation, 0.5 ng/ml to 5 μg/ml
Protocol: Lymphoid cells were isolated from SMA patients with different degrees of severity. Whole blood was drawn from the patients, heparinized, then diluted 1:1 with PBS (phosphate buffered saline). The diluted sample was layered on a Ficoll-Hypaque gradient, and centrifuge at 2500 rpm for 30 minutes at room temperature. The buffy coat was collected from the centrifuged sample, washed twice with 5 ml PBS, collected, and resuspended in 5 ml RPMI medium, 0.5 ml Epstein-Barr virus (EBV stock), 50 μl PHA, and 50 μl of cyclosporine (0.2 mg/ml). The virus-treated sample was mixed well and transferred into a T-flask for incubation at 37° C. in a 5% CO2 incubator for 3 weeks.
Rabbits were immunized with synthetic peptides containing either human SMN amino acids 279-288 from exon 7 or amino acids 72-84 from exon 2. Specific antibodies (H7 and H2 batches) were purified from rabbit crude sera with an EAH-sepharose 4B column (Pharmacia) according to the manufacturer's instructions.
Protein samples, prepared from treated and untreated SMA lymphoid cells, were loaded on a 5% polyacrylamide stacking gel above a 12% separating gel, and the gel was run with a discontinuous buffer using Laemmli's method. […] The secondary antibody was detected with a 1.5% solution of 5-bromo-4-chloro-3-indoyl phosphate and 3% nitro blue tetrazolium in a developing buffer (100 mM NaCl, 5 mM MgCl2, 100 mM Tris.HCl, pH 9.5). […]

[4] = treated mothers, 4-8 μg/day from 15 day post-coitum until parturition (untreated 10%)
[5] = treated mothers, 4-8 μg/day from 15 day post-coitum until parturition, 294 total pups

## CCCC(=O)[O-].[Na+] [sodium butyrate]
[1]; higher dose, 40-80 μg/day
  symptoms of progeny from treated mothers vs progeny from untreated mothers: milder symptoms
[1]; treated mothers, 4-8 μg/day from 15 day post-coitum until parturition (untreated 5%)
  percent of pups with Type 2 symptoms: 7%
[1]; [4]
  percent of pups with Type 1 symptoms: 7%
  percent of pups with Type 3 symptoms: 16%
[1]; [5]
  number of pups with Type 2 symptoms: 22
  number of pups with Type 3 symptoms: 48
[1]; treated mothers, 4-8 μg/day in drinking water from 15 day post-coitum until parturition, 294 total pups
  number of pups with Type 1 symptoms: 21
Exon 7 of the SMN2 gene; RT-PCR, treated vs untreated cells
  splicing of SMN2 transcripts: changed to include exon 7
Exon 7 of the SMN2 gene; lymphoid cells cultured with 5 ng/ml to 50 μg/ml
  amount of exon 7-containing SMN mRNA: increased
Exon 7 of the SMN2 gene; lymphoid cells, 5 ng/ml to 50 μg/ml
  time of greatest increase of exon 7-containing SMN mRNA after addition of the drug: 4 h
Exon 7 of the SMN2 gene; relative to untreated control, lymphoid cells from all three types of SMA patients
  level of full-length SMN mRNA transcript: increased levels of full-length SMN transcript; also recorded: increase
[2]; treated SMA-like mice
  tail histopathology relative to untreated SMA-like mice: fewer atrophied muscle bundles, less group atrophy, and reduced subcutaneous edema
[2]; treated SMA-like mice (untreated 50%)
  frequency of chronic necrosis originating at the tip of the tail: 2%
[2]; treated type 3 SMA-like mice (untreated about 1 cm, wild-type 6 cm)
  tail length on average: about 5 cm
[2]; type 2 SMA-like mice, drinking water 0.8 or 8 μg/ml, approx. 4-80 μg/day
  survival time longer than untreated mice, on average: 4 to 5 days
[2]; type 3 SMA-like mice
  tail phenotype: close to wild-type
[2]; western blot and immunohistochemistry, multiple tissues including spinal cord motor neurons
  exon 7-containing SMN protein levels in tissues: elevated
[3]
  amount of intact (exon 7-containing) SMN protein: increase
